In PubChem BioAssay (NCI):
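GI50 = concentration required for 50% inhibition of growth. TGI: total growth inhibition.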

How the values were obtained:
Experiment in all cases: growth of human tumour cells (NCI), 384-well format
786-0 renal = test system: 786-0 renal
A498 renal = test system: A498 renal
A549 NSCLC = test system: A549 NSCLC
ACHN renal = test system: ACHN renal
BT-549 breast = test system: BT-549 breast
CAKI-1 renal = test system: CAKI-1 renal
CCRF-CEM leukemia = test system: CCRF-CEM leukemia
COLO 205 colon = test system: COLO 205 colon
DU-145 prostate = test system: DU-145 prostate
HCC-2998 colon = test system: HCC-2998 colon
HCT-116 colon = test system: HCT-116 colon
HCT-15 colon = test system: HCT-15 colon
HL-60(TB) leukemia = test system: HL-60(TB) leukemia
HOP-62 NSCLC = test system: HOP-62 NSCLC
HOP-92 NSCLC = test system: HOP-92 NSCLC
HS 578T breast = test system: HS 578T breast
HT29 colon = test system: HT29 colon
IGROV1 ovarian = test system: IGROV1 ovarian
K-562 leukemia = test system: K-562 leukemia
KM12 colon = test system: KM12 colon
LOX IMVI melanoma = test system: LOX IMVI melanoma
M14 melanoma = test system: M14 melanoma
MALME-3M melanoma = test system: MALME-3M melanoma
MCF7 breast = test system: MCF7 breast
MDA-MB-231 breast = test system: MDA-MB-231 breast
MDA-MB-435 melanoma = test system: MDA-MB-435 melanoma
MDA-MB-468 breast = test system: MDA-MB-468 breast
MOLT-4 leukemia = test system: MOLT-4 leukemia
NCI-H226 lung = test system: NCI-H226 lung
NCI-H23 lung = test system: NCI-H23 lung
NCI-H322M lung = test system: NCI-H322M lung
NCI-H460 NSCLC = test system: NCI-H460 NSCLC
NCI-H522 lung = test system: NCI-H522 lung
NCI/ADR-RES ovarian = test system: NCI/ADR-RES ovarian
OVCAR-3 ovarian = test system: OVCAR-3 ovarian
OVCAR-4 ovarian = test system: OVCAR-4 ovarian
OVCAR-5 ovarian = test system: OVCAR-5 ovarian
PC-3 prostate = test system: PC-3 prostate
RPMI-8226 leukemia = test system: RPMI-8226 leukemia
RXF 393 renal = test system: RXF 393 renal
SF-268 CNS = test system: SF-268 CNS
SF-295 CNS = test system: SF-295 CNS
SF-539 CNS = test system: SF-539 CNS
SK-MEL-2 melanoma = test system: SK-MEL-2 melanoma
SK-MEL-28 melanoma = test system: SK-MEL-28 melanoma
SK-MEL-5 melanoma = test system: SK-MEL-5 melanoma
SK-OV-3 ovarian = test system: SK-OV-3 ovarian
SN12C renal = test system: SN12C renal
SNB-19 CNS = test system: SNB-19 CNS
SNB-75 CNS = test system: SNB-75 CNS
SR leukemia = test system: SR leukemia
SW-620 colon = test system: SW-620 colon
T-47D breast = test system: T-47D breast
TK-10 renal = test system: TK-10 renal
U251 glioblastoma = test system: U251 glioblastoma
UACC-257 melanoma = test system: UACC-257 melanoma
UACC-62 melanoma = test system: UACC-62 melanoma
UO-31 renal = test system: UO-31 renal

Question: What does the source list for COc1cccc(Nc2ncnn3ccc(CN4CC[C@@H](N)[C@H](O)C4)c23)c1?
Answer: GI50 ([…]-0 renal): 0.989 µM; TGI (786-0 renal): 14.4 µM; GI50 (A498 renal): 1.3 µM; TGI (A498 renal): 9 µM; GI50 (A549 NSCLC): 0.902 µM; TGI (A549 NSCLC): 14.4 µM; GI50 (ACHN renal): 0.0368 µM; TGI (ACHN renal): 5.84 µM; GI50 (BT-549 breast): 7.04 µM; TGI (BT-549 breast): 20.5 µM; GI50 (CAKI-1 renal): 0.295 µM; TGI (CAKI-1 renal): 7.12 µM; GI50 (CCRF-CEM leukemia): 14.7 µM; TGI (CCRF-CEM leukemia): 28 µM; GI50 (COLO 205 colon): 14.8 µM; TGI (COLO 205 colon): 28.2 µM; GI50 (DU-145 prostate): 1.11 µM; TGI (DU-145 prostate): 28.4 µM; GI50 (HCC-2998 colon): 12.5 µM; TGI (HCC-2998 colon): 25.5 µM; GI50 (HCT-116 colon): 12.3 µM; TGI (HCT-116 colon): 25.6 µM; GI50 (HCT-15 colon): 2.32 µM; TGI (HCT-15 colon): 32.7 µM; GI50 (HL-60(TB) leukemia): 17.6 µM; TGI (HL-60(TB) leukemia): 31.5 µM; GI50 (HOP-62 NSCLC): 2.7 µM; TGI (HOP-62 NSCLC): 30.2 µM; GI50 (HOP-92 NSCLC): 6.62 µM; TGI (HOP-92 NSCLC): 28.9 µM; GI50 (HS 578T breast): 1.49 µM; TGI (HS 578T breast): 6.24 µM; GI50 (HT29 colon): 12.8 µM; TGI (HT29 colon): 26.4 µM; TGI (IGROV1 ovarian): 0.512 µM; GI50 (K-562 leukemia): 0.0847 µM; TGI (K-562 leukemia): 0.228 µM; GI50 (KM12 colon): 3.54 µM; TGI (KM12 colon): 15.7 µM; GI50 (LOX IMVI melanoma): 7.68 µM; TGI (LOX IMVI melanoma): 20.4 µM; GI50 (M14 melanoma): 19 µM; TGI (M14 melanoma): 33.2 µM; GI50 (MALME-3M melanoma): 12.8 µM; TGI (MALME-3M melanoma): 25.5 µM; GI50 (MCF7 breast): 13.9 µM; TGI (MCF7 breast): 27.4 µM; GI50 (MDA-MB-231 breast): 1.99 µM; TGI (MDA-MB-231 breast): 25.4 µM; GI50 (MDA-MB-435 melanoma): 18.2 µM; TGI (MDA-MB-435 melanoma): 36.6 µM; GI50 (MDA-MB-468 breast): 0.0266 µM; TGI (MDA-MB-468 breast): 0.203 µM; GI50 (MOLT-4 leukemia): 0.8 µM; TGI (MOLT-4 leukemia): 13.9 µM; GI50 (NCI-H226 lung): 1.97 µM; TGI (NCI-H226 lung): 12.4 µM; GI50 (NCI-H23 lung): 2.42 µM; TGI (NCI-H23 lung): 16.8 µM; GI50 (NCI-H322M lung): 0.0313 µM; TGI (NCI-H322M lung): 0.941 µM; GI50 (NCI-H460 NSCLC): 11.3 µM; TGI (NCI-H460 NSCLC): 24.3 µM; TGI (NCI-H522 lung): 9.99 µM; GI50 (NCI/ADR-RES ovarian): 11.2 µM; TGI (NCI/ADR-RES ovarian): 27.6 µM; GI50 (OVCAR-3 ovarian): 0.0815 µM; TGI (OVCAR-3 ovarian): 21.8 µM; GI50 (OVCAR-4 ovarian): 24.8 µM; TGI (OVCAR-4 ovarian): > 100 µM; GI50 (OVCAR-5 ovarian): 0.686 µM; TGI (OVCAR-5 ovarian): 43.9 µM; GI50 (PC-3 prostate): 13.3 µM; TGI (PC-3 prostate): 87.7 µM; GI50 (RPMI-8226 leukemia): 16.4 µM; TGI (RPMI-8226 leukemia): 30.2 µM; GI50 (RXF 393 renal): 0.435 µM; TGI (RXF 393 renal): 3.21 µM; GI50 (SF-268 CNS): 4.4 µM; TGI (SF-268 CNS): 70.3 µM; GI50 (SF-295 CNS): 13.9 µM; TGI (SF-295 CNS): 30.9 µM; GI50 (SF-539 CNS): 1.55 µM; TGI (SF-539 CNS): 13.1 µM; GI50 (SK-MEL-2 melanoma): 26.7 µM; TGI (SK-MEL-2 melanoma): 41.5 µM; GI50 (SK-MEL-28 melanoma): 18.3 µM; TGI (SK-MEL-28 melanoma): 32.4 µM; GI50 (SK-MEL-5 melanoma): 15.6 µM; TGI (SK-MEL-5 melanoma): 29 µM; GI50 (SK-OV-3 ovarian): 0.0333 µM; TGI (SK-OV-3 ovarian): 0.607 µM; GI50 (SN12C renal): 0.18 µM; TGI (SN12C renal): 12 µM; GI50 (SNB-19 CNS): 15.4 µM; TGI (SNB-19 CNS): 83.6 µM; GI50 (SNB-75 CNS): 0.247 µM; TGI (SNB-75 CNS): 1.37 µM; GI50 (SR leukemia): 12.5 µM; TGI (SR leukemia): 25.2 µM; GI50 (SW-620 colon): 17.5 µM; TGI (SW-620 colon): 32.5 µM; GI50 (T-47D breast): 15.8 µM; TGI (T-47D breast): 30.2 µM; GI50 (TK-10 renal): 0.0524 µM; TGI (TK-10 renal): 1.27 µM; GI50 (U251 glioblastoma): 12.9 µM; TGI (U251 glioblastoma): 26.4 µM; GI50 (UACC-257 melanoma): 11.3 µM; TGI (UACC-257 melanoma): 23.5 µM; GI50 (UACC-62 melanoma): 16.1 µM; TGI (UACC-62 melanoma): 29.8 µM; GI50 (UO-31 renal): 1.1 µM; TGI (UO-31 renal): 7.47 µM
